Experimental data published in PubChem BioAssay AID1963972 (Molecular Pharmacology Branch, DTP, NCI, 2024).

System: 945468-187-T-J2-PDC spheroids viability
Assay: Anticancer human tumor 945468-187-T-J2-PDC patient-derived rectal carcinoma cell line growth inhibition [PI3K]
Conditions: spheroids with HUVEC and MSC; for IC50: curve of first compound; for viability, T/C: stronger effect = lower value
From the text: Combinatorial screen of targeted agents with the PI3K inhibitors inavolisib, alpelisib, duvelisib, and copanlisib in multi-cell type tumor spheroids
A high-throughput screen of multi-cell type tumor spheroids was designed to identify active combinations of targeted small molecules and PI3K pathway inhibitors. Complex spheroids include a stromal component modeled by human endothelial cells (HUVEC) and fibroblasts modeled by human mesenchymal stem cells (MSCs). The concentration ranges selected for each drug and investigational agent were based upon clinically achievable concentrations if the clinical Cmax of the agent was known.
Compounds. The drugs and investigational agents: inavolisib (NSC800729), alpelisib (NSC765974), duvelisib (NSC772469), copanlisib (NSC816437), ipatasertib (NSC767898), afuresertib (NSC778305), talazoparib (NSC767125), sapanisertib (NSC764658), selumetinib (NSC741078), tovorafenib (DAY101, NSC766906), vemurafenib (NSC761431), ravoxertinib (NSC781343), sotorasib (NSC818433), MRTX1133 (NSC 836407), abemaciclib (NSC 768073), palbociclib (NSC758247), venetoclax (NSC 766270), SY5609 (NSC837396), enzalutamide (NSC755605), and darolutamide (NSC825331), were obtained from the National Cancer Institute (NCI) Developmental Therapeutics Program Chemical Repository. The FDA-approved anticancer drug set is available from the NCI Developmental Therapeutics Program. […] The stock solutions were prepared in dimethyl sulfoxide (DMSO, Sigma-Aldrich, St. Louis, MO, cat. D2650) at 800-fold the tested concentration and stored at -70 degrees C prior to their use. All drugs and investigational agents were tested over a range starting from a high concentration at or near the clinical Cmax and decreasing in half-log increments. If the clinical Cmax for an agent had not been determined, the highest concentration tested was 10 microM.
Cell Culture. All cells were maintained in an incubator at 37 degrees C and 5% CO2 with 95% humidity. The PDC lines were cultured according to standard operating procedures established by the NCI PDMR (https://pdmr.cancer.gov/sops/default.htm). All PDCs were thawed and cultured in Matrigel-coated flasks prepared with a working solution of 1X Ham's F-12 nutrient mix, without supplementation (Invitrogen, Waltham, MA, cat. 11765054), 100 U/mL penicillin-streptomycin (Invitrogen, cat. 15140122), and 2.5% Matrigel (Corning Inc., Corning, NY, cat. 354248) for the first three passages. The 354836-022-R-J1-PDC, 475296-252-R-J1-PDC, and 997726-040-R-J2-PDC lines were cultured in 6A media, which includes advanced DMEM/F-12 (Thermo Fisher Scientific, cat. 12634028), 10 mM HEPES (Thermo Fisher Scientific, cat. 15630080), 1X GlutaMAX supplement (Thermo Fisher Scientific, cat. 35050061), 0.1 mg/mL primocin (InvivoGen, San Diego, CA, cat. ant-pm-2), 10% defined fetal bovine serum, heat inactivated (HyClone Laboratories Inc., Logan, UT, cat. SH30070.03HI), 50% L-WRN conditioned media (ATCC, cat. CRL-3276), 1.25 mM N-Acetyl-L-cysteine (Sigma-Aldrich, cat. A9165), 10 mM nicotinamide (Sigma-Aldrich, cat. N0636), 1X B-27 supplement (Thermo Fisher Scientific, cat. 17504044), 1X N-2 supplement (Thermo Fisher Scientific, cat. 17502048), and 10 microM Y-27632 dihydrochloride (Tocris Bioscience, Bristol, United Kingdom, cat. 1254). The 624824-186-R-J2-PDC line was cultured in 6C/Colon 1B media, which includes all 6A media components plus 50 ng/mL human EGF recombinant protein (Thermo Fisher Scientific, cat. PHG0311). […]
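Also: spheroids exposed to compounds for seven days before reading.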

Question: With CCCS(=O)(=O)Nc1ccc(F)c(C(=O)c2c[nH]c3ncc(-c4ccc(Cl)cc4)cc23)c1F + CC(Nc1ccc2c(c1)OCCn1cc(N3C(=O)OCC3C(F)F)nc1-2)C(N)=O as the compound, how does the IC50 (second compound 0.00316 µM) read?
Answer: > 10 µM

Question: What about the IC50 (second compound 0.01 µM) of the same compound?
Answer: 4.28 µM

Question: What about the IC50 (second compound 0.0316 µM) of the same compound?
Answer: 5.45 µM

Question: And the IC50 (second compound 0.1 µM)?
Answer: 6.98 µM

Question: And the IC50 (second compound 0.316 µM)?
Answer: 5.9 µM

Question: And the IC50 (second compound 1 µM)?
Answer: 5.88 µM

Question: And the viability, T/C (second compound 0.00316 µM, first compound 0.0316 µM)?
Answer: 115%

Question: What about the viability, T/C (second compound 0.00316 µM, first compound 0.1 µM) of the same compound?
Answer: 115%

Question: And the viability, T/C (second compound 0.00316 µM, first compound 0.316 µM)?
Answer: 113%

Question: What about the viability, T/C (second compound 0.00316 µM, first compound 1 µM) of the same compound?
Answer: 97.1%

Question: What about the viability, T/C (second compound 0.00316 µM, first compound 3.16 µM) of the same compound?
Answer: 74.7%

Question: And the viability, T/C (second compound 0.00316 µM, first compound 10 µM)?
Answer: 53.6%

Question: And the viability, T/C (second compound 0.01 µM, first compound 0.0316 µM)?
Answer: 113%

Question: And the viability, T/C (second compound 0.01 µM, first compound 0.1 µM)?
Answer: 115%

Question: What about the viability, T/C (second compound 0.01 µM, first compound 0.316 µM) of the same compound?
Answer: 105%

Question: What about the viability, T/C (second compound 0.01 µM, first compound 1 µM) of the same compound?
Answer: 77.1%

Question: And the viability, T/C (second compound 0.01 µM, first compound 3.16 µM)?
Answer: 74.8%

Question: And the viability, T/C (second compound 0.01 µM, first compound 10 µM)?
Answer: 7.68%

Question: And the viability, T/C (second compound 0.0316 µM, first compound 0.0316 µM)?
Answer: 103%

Question: What about the viability, T/C (second compound 0.0316 µM, first compound 0.1 µM) of the same compound?
Answer: 98.8%

Question: What about the viability, T/C (second compound 0.0316 µM, first compound 0.316 µM) of the same compound?
Answer: 98.8%

Question: And the viability, T/C (second compound 0.0316 µM, first compound 1 µM)?
Answer: 92.1%

Question: What about the viability, T/C (second compound 0.0316 µM, first compound 3.16 µM) of the same compound?
Answer: 89.2%

Question: And the viability, T/C (second compound 0.0316 µM, first compound 10 µM)?
Answer: 6.32%

Question: What about the viability, T/C (second compound 0.1 µM, first compound 0.0316 µM) of the same compound?
Answer: 92.3%

Question: What about the viability, T/C (second compound 0.1 µM, first compound 0.1 µM) of the same compound?
Answer: 109%

Question: And the viability, T/C (second compound 0.1 µM, first compound 0.316 µM)?
Answer: 107%

Question: And the viability, T/C (second compound 0.1 µM, first compound 1 µM)?
Answer: 92.8%

Question: What about the viability, T/C (second compound 0.1 µM, first compound 3.16 µM) of the same compound?
Answer: 90.2%

Question: What about the viability, T/C (second compound 0.1 µM, first compound 10 µM) of the same compound?
Answer: 32.3%

Question: What about the viability, T/C (second compound 0.316 µM, first compound 0.0316 µM) of the same compound?
Answer: 83.4%

Question: And the viability, T/C (second compound 0.316 µM, first compound 0.1 µM)?
Answer: 88.8%

Question: And the viability, T/C (second compound 0.316 µM, first compound 0.316 µM)?
Answer: 85.3%

Question: And the viability, T/C (second compound 0.316 µM, first compound 1 µM)?
Answer: 85.8%

Question: What about the viability, T/C (second compound 0.316 µM, first compound 3.16 µM) of the same compound?
Answer: 78.1%

Question: What about the viability, T/C (second compound 0.316 µM, first compound 10 µM) of the same compound?
Answer: 26.1%

Question: And the viability, T/C (second compound 1 µM, first compound 0.0316 µM)?
Answer: 78.2%

Question: What about the viability, T/C (second compound 1 µM, first compound 0.1 µM) of the same compound?
Answer: 81%

Question: And the viability, T/C (second compound 1 µM, first compound 0.316 µM)?
Answer: 77.4%

Question: What about the viability, T/C (second compound 1 µM, first compound 1 µM) of the same compound?
Answer: 87.9%

Question: What about the viability, T/C (second compound 1 µM, first compound 3.16 µM) of the same compound?
Answer: 80.3%

Question: What about the viability, T/C (second compound 1 µM, first compound 10 µM) of the same compound?
Answer: 24%
